Here are results for five molecules from US8957035B2, “Toll like receptor (TLR) stimulation for ocular angiogenesis and macular degeneration” (University of Kentucky Research Foundation, priority 2006, dated 2015).

Holding throughout (assay type): in vivo, mouse
For data set [1], the system named is choroidal neovascularization. Kind of data set: Laser-induced choroidal neovascularization (CNV) volume in mice. As to conditions: for effect on choroidal neovascularization (CNV): FIG. 1, 0.2-2 μg, poly I:C vs control poly dI:dC, loxoribine vs control PBS; for ability to suppress CNV in IL-10−/− mice / ability to suppress CNV in IL-12−/− mice: FIG. 6, 2 μg; for ability to suppress CNV in IL-10−/− mice: IL-10−/− mice versus wild-type; for ability to suppress CNV in IL-12−/− mice: IL-12−/− mice versus wild-type; for CNV volume in wild-type mice versus PBS: FIG. 7/8, 0.25 μg into the vitreous humor immediately after laser injury; for CNV in TLR3−/− mice: FIG. 7, differences not statistically significant. From the text:
All animal experiments were in accordance with the guidelines of the University of Kentucky IACUC and the Association for Research in Vision and Ophthalmology. Male C57BL/6J mice (Jackson Laboratory) between 6 and 8 weeks of age were used to minimize variability. The sources for the other mouse strains were: TLR3−/−, IL-10−/−, IL-12−/−, IFNγ−/− (Jackson Laboratory), IFNAR-1−/− (gift of H. Virgin, Washington University), TLR7−/− (gift of D. Golenback, University of Massachusetts), TLR9−/− (gift of E. Pearlman, Case Western Reserve University), VEGFR1 tyrosine kinase−/− (gift of M. Shibuya, University of Tokyo), Trif−/− (Trif deficient Lps2 mice from The Jackson Laboratories). For all procedures, anesthesia was achieved by intraperitoneal injection of 50 mg/kg ketamine hydrochloride (Ft. Dodge Animal Health) and 10 mg/kg xylazine (Phoenix Scientific), and pupils were dilated with topical 1% tropicamide (Alcon Laboratories).
Laser photocoagulation (532 nm, 200 mW, 100 ms, 75 μm) (OcuLight GL, Iridex Corporation) was performed (volume studies: 3/eye; protein analyses/flow cytometry: 12/eye) on both eyes of each animal to induce CNV (choroidal neovascularization). CNV volumes were measured by scanning laser confocal microscope (TCS SP, Leica) with 0.5% FITC-Griffonia simplicifolia Isolectin B4 (Vector Laboratories) or 0.5% FITC-rat antibody against mouse CD31 (BD Biosciences). Volumes obtained by lectin and CD31 staining were highly correlated (r^2=0.95).
Also tested were shorter non-targeted siRNAs: a 5+2 length nucleotide (5 nucleotides plus a 2 nucleotide overhang, with one strand having the sequence UAAGGdTdT and the other strand having the sequence CCUUAdTdT), and a 11+2 length nucleotide (11 nucleotides plus a 2 nucleotide overhang, with one strand having the sequence […]dTdT and the other strand having the sequence […]dTdT).
Because the probability of each laser lesion developing CNV is influenced by the group to which it belongs, the mouse, the eye, and the laser spot, the mean lesion volumes were compared using a linear mixed model with a split plot repeated measures design. The whole plot factor was the genetic group to which the animal belonged while the split plot factor was the eye. Statistical significance was determined at the 0.05 level. Post hoc comparison of means was constructed with a Bonferroni adjustment for multiple comparisons. ELISA measurements were compared by Student's t-test.

For the next data set, the system named is IL-10. The data set is described as follows: IL-10 protein ELISA in RPE/choroid after laser injury. As to conditions: FIG. 4; 2 μg; wild-type mice; 3 days after laser injury. As for the experimental part: (§1) Laser photocoagulation (532 nm, 200 mW, 100 ms, 75 μm) (OcuLight GL, Iridex Corporation) was performed (volume studies: 3/eye; protein analyses/flow cytometry: 12/eye) on both eyes of each animal to induce CNV (choroidal neovascularization). CNV volumes were measured by scanning laser confocal microscope (TCS SP, Leica) with 0.5% FITC-Griffonia simplicifolia Isolectin B4 (Vector Laboratories) or 0.5% FITC-rat antibody against mouse CD31 (BD Biosciences). Volumes obtained by lectin and CD31 staining were highly correlated (r^2=0.95). […]
(§2) IL-10 and IL-12 protein levels were measured by ELISA (Peprotech) according to the manufacturer's instructions, as were IFN-α, IFN-β and IFN-γ (PBL InterferonSource). Total protein was measured according to Biorad.
(§3) Because the probability of each laser lesion developing CNV is influenced by the group to which it belongs, the mouse, the eye, and the laser spot, the mean lesion volumes were compared using a linear mixed model with a split plot repeated measures design. […] Statistical significance was determined at the 0.05 level. […]
A general note: An ELISA detects its analyte on a solid surface through an enzyme-linked reagent.

The subject of a further data set is IL-12. Kind of data set: IL-12 protein ELISA in RPE/choroid after laser injury. As to conditions: FIG. 4; 2 μg; wild-type mice; 1 day after laser injury. As for the experimental part:
as §1, §2, §3
IFN-α and IFN-β were measured by ELISA and normalized to total protein. […] IFN-γ was measured by ELISA (PBL InterferonSource) and IL-12 was measured by ELISA (eBioscience) and normalized to total protein. *P<0.05.

Setting [2] is: dose-dependent, intravitreous immediately after laser injury, P<0.05.

“Also recorded” adds a separate entry of the source. d = 2'-deoxy (DNA); r = 2'-OH (RNA)

Take `C=CCn1c(=O)n([C@@H]2O[C@H](CO)[C@@H](O)[C@H]2O)c2nc(N)[nH]c(=O)c21` [Loxoribine]: the “effect on choroidal neovascularization (CNV)” value in data set [1] (setting [2]) is listed as “reduced CNV”. For the same molecule, in data set [1], the “ability to suppress CNV in IL-10−/− mice” value is recorded as “markedly reduced” and the “ability to suppress CNV in IL-12−/− mice” value is given as “markedly reduced”. Also, in the data set with IL-10, the “IL-10 protein expression in the RPE/choroid” value is reported as “induced”. Further, in the data set on IL-12, the “IL-12 protein expression in the RPE/choroid” value is “induced”.
For the molecule “Bevasiranib: siRNA against VEGF-A; sense ACCUCACCAAGGCCAGCACdTdT, antisense GUGCUGGCCUUGGUGAGGUdTdT (sense ACCUCACCAAGGCCAGCACTT; antisense GUGCUGGCCUUGGUGAGGUTT; sugars from the 5' end r19 d2, backbone not given here)”, the “CNV volume in wild-type mice versus PBS” value in data set [1] (P<0.05) is on record as “essentially equally effective in suppressing CNV”. Further, the “CNV in TLR3−/− mice” value in data set [1] (0.25 μg intravitreous) is given as “non of them suppressed CNV”.
With Poly I:C, in data set [1] (setting [2]), the “effect on choroidal neovascularization (CNV)” value is reported as “reduced CNV”. Moreover, in data set [1], the “ability to suppress CNV in IL-10−/− mice” value was “markedly reduced” and the “ability to suppress CNV in IL-12−/− mice” value is on record as “markedly reduced”. In the data set on IL-10, the “IL-10 protein expression in the RPE/choroid” value is “induced”. Further, the “IL-12 protein expression in the RPE/choroid” value with IL-12 is recorded as “induced”.
As for “Sirna-027: siRNA against VEGFR-1; sense CUGAGUUUAAAAGGCACCCdTdT, antisense GGGUGCCUUUUAAACUCAGdTdT (sense CUGAGUUUAAAAGGCACCCTT; antisense GGGUGCCUUUUAAACUCAGTT; sugars from the 5' end r19 d2, backbone not given here)”, the “CNV volume in wild-type mice versus PBS” value in data set [1] (P<0.05) was “essentially equally effective in suppressing CNV; also recorded: significantly lower than control”. Besides, the “CNV in TLR3−/− mice” value in data set [1] (0.25 μg intravitreous) is on record as “non of them suppressed CNV”. For the same molecule, the “CNV in VEGFR1 tk−/− mice versus PBS” value in data set [1] (FIG. 8, 0.25 μg intravitreous, VEGFR1 tyrosine kinase−/− mice, P<0.05) is listed as “suppressed CNV”.
“recombinant mouse IFNγ: recombinant mouse IFNγ (eBioscience)”: the “effect on choroidal neovascularization in wild-type C57BL/6J mice” value in data set [1] (FIG. 14, intravitreous immediately after laser injury, dose-dependent, P<0.05) is listed as “reduced choroidal neovascularization”.
